Earlier results in patent US12390412B2, “Hydroglycolic cosmetic composition with a high active content” (L'OREAL, priority 2020, dated 2025).

Details: pH of the composition about 3.0 to about 4.0, more particularly about 3.5

ascorbic acid remains in a protonated, uncharged form: greater than 82%
Compound: O=C1O[C@H]([C@@H](O)CO)C(O)=C1O [ascorbic acid]
